{"source": "the supplement of paper PMC10307832", "assay_in_all_cases": "relative viability (nuclei count vs DMSO), 5 days (fraction); higher = more cells survive", "key": {"[1]": {"compound": "CN1C=C(C2=CC=CC=C21)/C=C\\3/C4=C(C=CC=N4)NC3=O + CC(C)C[C@H](NC(=O)[C@H](Cc1ccccc1)NC(=O)c1cnccn1)B(O)O [Bortezomib] (partner 0.002 µM)", "outline": "(§1)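 Lung cancer cell lines in 1536-well plates were dosed by pin tool the day after seeding, either with one drug alone or with a fixed anchor-drug dose plus five library-drug doses (not always all listed) in √10 steps. After 5 days, cells were fixed and their nuclei stained in one step (final 0.05% Triton X-100, 1% formaldehyde, 1 ug/ml Hoechst), then counted on 4× images. Relative viability is the nuclei count in treated wells divided by that in vehicle wells. Values are medians of duplicate plates.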"}, "[2]": {"compound": "CN1C=C(C2=CC=CC=C21)/C=C\\3/C4=C(C=CC=N4)NC3=O + CCNC(=O)c1noc(-c2cc(C(C)C)c(O)cc2O)c1-c1ccc(CN2CCOCC2)cc1 [Luminespib] (partner 0.01 µM)", "outline": "as §1"}, "[3]": {"compound": "CN1C=C(C2=CC=CC=C21)/C=C\\3/C4=C(C=CC=N4)NC3=O + COc1cccc2cc(-c3nc([C@H]4CC[C@H](C(=O)O)CC4)n4ncnc(N)c34)[nH]c12 [OSI-027] (partner 0.5 µM)", "outline": "as §1"}, "[4]": {"compound": "CN1C=C(C2=CC=CC=C21)/C=C\\3/C4=C(C=CC=N4)NC3=O + C[C@]1(O)C[C@@H](c2nc(-c3ccc4ccc(-c5ccccc5)nc4c3)c3c(N)nccn32)C1 [Linsitinib] (partner 1 µM)", "outline": "as §1"}}}
{"cell line": "UMC-11", "values": [{"measurement": "relative viability", "setting": "[1]; first compound 0.02 µM", "value": 0.668}, {"measurement": "relative viability", "setting": "[1]; first compound 0.06325 µM", "value": 0.263}, {"measurement": "relative viability", "setting": "[1]; first compound 0.2 µM", "value": 0.572}, {"measurement": "relative viability", "setting": "[1]; first compound 0.6325 µM", "value": 0.761}, {"measurement": "relative viability", "setting": "[1]; first compound 2 µM", "value": 0.926}, {"measurement": "relative viability", "setting": "[2]; first compound 0.02 µM", "value": 0.764}, {"measurement": "relative viability", "setting": "[2]; first compound 0.06325 µM", "value": 0.943}, {"measurement": "relative viability", "setting": "[2]; first compound 0.2 µM", "value": 1}, {"measurement": "relative viability", "setting": "[2]; first compound 0.6325 µM", "value": 1.25}, {"measurement": "relative viability", "setting": "[2]; first compound 2 µM", "value": 1.18}, {"measurement": "relative viability", "setting": "[3]; first compound 0.02 µM", "value": 0.513}, {"measurement": "relative viability", "setting": "[3]; first compound 0.06325 µM", "value": 0.49}, {"measurement": "relative viability", "setting": "[3]; first compound 0.2 µM", "value": 0.461}, {"measurement": "relative viability", "setting": "[3]; first compound 0.6325 µM", "value": 0.536}, {"measurement": "relative viability", "setting": "[3]; first compound 2 µM", "value": 0.494}, {"measurement": "relative viability", "setting": "[4]; first compound 0.02 µM", "value": 0.68}, {"measurement": "relative viability", "setting": "[4]; first compound 0.06325 µM", "value": 1}, {"measurement": "relative viability", "setting": "[4]; first compound 0.2 µM", "value": 1.07}, {"measurement": "relative viability", "setting": "[4]; first compound 0.6325 µM", "value": 1.1}, {"measurement": "relative viability", "setting": "[4]; first compound 2 µM", "value": 1.18}]}
